Source: patent publication US9220787B2, “Vitamin E conjugates, and their uses as antioxidants and prodrug delivery vehicles” (Board of Supervisors of Louisiana State University And …, priority 2010, dated 2015)

Tested on: not listed separately
Test: DPPH assay (antioxidant activity, free radical scavenging)
Assay type: biochemical
Details: 5 concentrations, 0.1 mM DPPH, water:methanol 1:1, reading after 30 min at 518 nm, read-out: IC50, the point at which 50% of DPPH had been reduced
Source text: Assays that may be used to measure free radical scavenging properties include, for example, the DPPH assay and the ABTS assay. The 1,1-diphenyl-2-picryl hydrazyl (DPPH) radical is a stable free radical of purple color. Adding an antioxidant reduces the DPPH radical, which can be observed by color change (to yellow) in a spectrophotometer, for example by measuring absorbance at 518 nm. Mixing 2,2-α-azino-bis-(3-ethylbenzthiazoline-6-sulfonic acid) (ABTS) and hydrogen peroxide produces the ABTS radical (ABTS^●). Subsequent incubation with peroxidase produces the radical cation ABTS^•+. Adding an antioxidant causes an attenuation of the color change, which can be measured for example at 734 nm. The activity of an antioxidant is conventionally expressed as the concentration of an equivalent millimolar standard Trolox solution.
A stock solution of DPPH in methanol, 0.4 mM was prepared and stored in the dark at −20° C. prior to use. A test sample was diluted with water (pH=3.5 prepared by addition of acetic acid) to 1 ml. The sample was then added to the dilute DPPH stock in methanol to obtain a final sample volume of 2 ml with a 0.1 mM DPPH concentration. The water:methanol ratio was 1:1 (v/v). A blank was prepared with 1 ml of water (pH=3.5) and pure methanol. […] Absorption readings were taken after 30 min at 518 nm using a Geminys 6 spectrophotometer (Thermo Scientific, Waltham, Mass.). […]

| IC50 [µM] | SMILES |
| --- | --- |
| 24.9 ± 1.4 | COC(=O)C(Cc1c[nH]cn1)NC(=O)CCNC(=O)CCCCCCCCCCCC[C@]1(C)CCc2c(C)c(O)c(C)c(C)c2O1 (stereo partly drawn) [VECAR, methyl 2-(3-(13-((R)-6-hydroxy-2,5,7,8-tetramethylchroman-2-yl)tridecanamido)propanamido)-3-(1H-imidazol-4-yl)propanoate] |
| 24.4 ± 1.5 | Cc1c(C)c2c(c(C)c1O)CC[C@@](C)(CCC[C@H](C)CCC[C@H](C)CCCC(C)C)O2 [alpha-tocopherol] |

Tested on: α-tocopherol transfer protein (α-TTP)
Test: not given
Details: relative affinity, RRR-α-tocopherol essentially 100%; cited from earlier work

| SMILES | affinity of Alpha-TTP [%] |
| --- | --- |
| Cc1c(C)c2c(c(C)c1O)CC[C@@](C)(CCC[C@H](C)CCC[C@H](C)CCCC(C)C)O2 [RRR-α-tocopherol] | ~100 |
| Cc1c(C)c2c(c(C)c1O)CCC(C)(C(=O)O)O2 (stereo not shown) [Trolox, 6-hydroxy-2,5,7,8-tetramethylchroman-2-carboxylic acid] | 9 |
| CC(=O)Oc1c(C)c(C)c2c(c1C)CCC(C)(CCC[C@H](C)CCC[C@H](C)CCCC(C)C)O2 (stereo partly drawn) [α-tocopherol acetate] | 2 |
| Cc1cc(O)c(C)c2c1O[C@](C)(CCC[C@H](C)CCC[C@H](C)CCCC(C)C)CC2 [β-tocopherol] | 38 |
| Cc1c(O)cc2c(c1C)O[C@](C)(CCC[C@H](C)CCC[C@H](C)CCCC(C)C)CC2 [γ-tocopherol] | 9 |
